# Measured values from patent US11826351B2, “Compounds useful as kinase inhibitors” (Loxo Oncology, Inc., priority 2015, dated 2023).
# How the values were obtained:
# Recombinant EGFR = molecular target: T1, Recombinant EGFR (Homo sapiens, UniProt P00533); assay: EGFR binding affinity (LanthaScreen TR-FRET); settings: Kinase Tracer 199, 5 h incubation
# T1 construct: purchased Invitrogen
# Experimental: EGFR binding affinity was determined using a time-resolved fluorescence resonance energy transfer (TR-FRET) methodology. […] Recombinant EGFR and all LanthaScreen™ components were purchased from Invitrogen. Measurements were performed in a reaction volume of 30 μL using half-area 96-well assay plates. […] Binding affinity was determined for each compound by measuring TR-FRET signal at various concentrations of compound and plotting the relative fluorescence units against the inhibitor concentration to estimate the IC50 from log[Inhibitor] vs response using the Variable Slope model in Graphpad prism from Graphpad software (San Diego, Calif.).
# [1] = molecular target: T2, Recombinant BTK^WT kinase (Homo sapiens, UniProt Q06187); assay: BTK WT binding affinity (LanthaScreen TR-FRET); settings: Kinase Tracer 236, 5 h incubation
# T2 construct: purchased Invitrogen
# T2 sequence (Q06187 whole entry): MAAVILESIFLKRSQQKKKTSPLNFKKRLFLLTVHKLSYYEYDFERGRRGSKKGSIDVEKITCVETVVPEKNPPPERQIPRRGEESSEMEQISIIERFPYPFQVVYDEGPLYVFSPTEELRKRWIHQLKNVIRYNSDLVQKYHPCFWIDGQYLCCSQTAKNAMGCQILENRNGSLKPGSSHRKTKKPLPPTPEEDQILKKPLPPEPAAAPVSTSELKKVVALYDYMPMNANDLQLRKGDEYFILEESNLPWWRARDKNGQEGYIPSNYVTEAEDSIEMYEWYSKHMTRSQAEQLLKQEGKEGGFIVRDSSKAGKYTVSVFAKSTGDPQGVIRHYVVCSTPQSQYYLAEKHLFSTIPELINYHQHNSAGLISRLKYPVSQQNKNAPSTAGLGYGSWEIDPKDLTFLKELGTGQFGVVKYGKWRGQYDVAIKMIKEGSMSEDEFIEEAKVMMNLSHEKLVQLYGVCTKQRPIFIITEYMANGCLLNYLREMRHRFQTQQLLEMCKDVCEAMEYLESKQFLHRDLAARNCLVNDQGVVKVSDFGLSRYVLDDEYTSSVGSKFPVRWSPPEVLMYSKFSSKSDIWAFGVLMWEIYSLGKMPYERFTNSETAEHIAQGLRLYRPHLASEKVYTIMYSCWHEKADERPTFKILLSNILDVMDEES
# Experimental: BTK^WT binding affinity of each compound tested was determined using a time-resolved fluorescence resonance energy transfer (TR-FRET) methodology. 2.5 nM Recombinant BTK^WT kinase, varying concentrations of inhibitor, 2 nM LanthaScreen™ Eu anti-His Antibody and 15 nM Kinase Tracer 236 was incubated in 1× LanthaScreen™ Kinase Buffer A for 5 h. Recombinant BTK kinase and all LanthaScreen™ components were purchased from Invitrogen. Measurements were performed in a reaction volume of 30 μL using half-area 96-well assay plates. The TR-FRET signal was read on a plate reader with an excitation wavelength of 340 nm and detection wavelengths of 615 and 665 nm. Binding affinity was determined for each compound by measuring TR-FRET signal at various concentrations of compound and plotting the relative fluorescence units against the inhibitor concentration to estimate the IC50 from log[Inhibitor] vs response using the Variable Slope model in Graphpad prism from Graphpad software (San Diego, Calif.).
# [2] = test system: OCI-Ly10 human DLBCL cells; assay: OCI-Ly10 anti-proliferative activity (Resazurin); format: cell-based; settings: Homo sapiens, OCI-Ly10, 72 h, OCI-Ly10 cells, 72 h compound treatment, Resazurin; read-out: Proliferation Assay OCI-Ly10-20% FBS
# Experimental: Compounds were assayed for effects on the growth of OCI-Ly10 human DLBCL cells that are dependent on NFκB signalling. […] Cells were then plated at 7.5×10^3 cells per well in 96-well plates in varying concentrations of compound and incubated for 72 h at 37° C. An additional plate of cells to be used as the Day 0 read was seeded without compound addition, Resazurin was added to each well, incubated for 5 h and the fluorescence measured at 590 nm. After 72 h of compound treatment, Resazurin was added to each well of the compound treated plates, incubated for 5 h and the fluorescence measured at 590 nm. The IC50 was then calculated by subtracting the average Day 0 value from each well value from the treated plates, each treatment was then calculated as a percentage of the DMSO control and the percentages plotted against the inhibitor concentration to estimate the IC50 from log[Inhibitor] vs response using the Variable Slope model in Graphpad prism from Graphpad software (San Diego, Calif.).
# [3] = molecular target: T3, Recombinant BTK^C481S kinase (Homo sapiens, UniProt Q06187, C481S); assay: BTK C481S binding affinity (LanthaScreen TR-FRET); settings: Kinase Tracer 236, 5 h incubation
# T3 construct: purchased SignalChem
# T3 sequence (Q06187 whole entry C481S): as the sequence (Q06187 whole entry) above, with C481S counted along it
# Experimental: BTK^C481S binding affinity of each compound tested was determined using a time-resolved fluorescence resonance energy transfer (TR-FRET) methodology. 5 nM Recombinant BTK^WT kinase, varying concentrations of inhibitor, 2 nM LanthaScreen™ Eu anti-His Antibody and 30 nM Kinase Tracer 236 was incubated in 1× LanthaScreen™ Kinase Buffer A for 5 h. Recombinant BTK^C481S kinase was purchased from SignalChem and all LanthaScreen™ components were purchased from Invitrogen. Measurements were performed in a reaction volume of 30 μL using half-area 96-well assay plates. The TR-FRET signal was read on a plate reader with an excitation wavelength of 340 nm and detection wavelengths of 615 and 665 nm. Binding affinity was determined for each compound by measuring TR-FRET signal at various concentrations of compound and plotting the relative fluorescence units against the inhibitor concentration to estimate the IC50 from log[Inhibitor] vs response using the Variable Slope model in Graphpad prism from Graphpad software (San Diego, Calif.).
# T1 sequence (P00533 25-1210): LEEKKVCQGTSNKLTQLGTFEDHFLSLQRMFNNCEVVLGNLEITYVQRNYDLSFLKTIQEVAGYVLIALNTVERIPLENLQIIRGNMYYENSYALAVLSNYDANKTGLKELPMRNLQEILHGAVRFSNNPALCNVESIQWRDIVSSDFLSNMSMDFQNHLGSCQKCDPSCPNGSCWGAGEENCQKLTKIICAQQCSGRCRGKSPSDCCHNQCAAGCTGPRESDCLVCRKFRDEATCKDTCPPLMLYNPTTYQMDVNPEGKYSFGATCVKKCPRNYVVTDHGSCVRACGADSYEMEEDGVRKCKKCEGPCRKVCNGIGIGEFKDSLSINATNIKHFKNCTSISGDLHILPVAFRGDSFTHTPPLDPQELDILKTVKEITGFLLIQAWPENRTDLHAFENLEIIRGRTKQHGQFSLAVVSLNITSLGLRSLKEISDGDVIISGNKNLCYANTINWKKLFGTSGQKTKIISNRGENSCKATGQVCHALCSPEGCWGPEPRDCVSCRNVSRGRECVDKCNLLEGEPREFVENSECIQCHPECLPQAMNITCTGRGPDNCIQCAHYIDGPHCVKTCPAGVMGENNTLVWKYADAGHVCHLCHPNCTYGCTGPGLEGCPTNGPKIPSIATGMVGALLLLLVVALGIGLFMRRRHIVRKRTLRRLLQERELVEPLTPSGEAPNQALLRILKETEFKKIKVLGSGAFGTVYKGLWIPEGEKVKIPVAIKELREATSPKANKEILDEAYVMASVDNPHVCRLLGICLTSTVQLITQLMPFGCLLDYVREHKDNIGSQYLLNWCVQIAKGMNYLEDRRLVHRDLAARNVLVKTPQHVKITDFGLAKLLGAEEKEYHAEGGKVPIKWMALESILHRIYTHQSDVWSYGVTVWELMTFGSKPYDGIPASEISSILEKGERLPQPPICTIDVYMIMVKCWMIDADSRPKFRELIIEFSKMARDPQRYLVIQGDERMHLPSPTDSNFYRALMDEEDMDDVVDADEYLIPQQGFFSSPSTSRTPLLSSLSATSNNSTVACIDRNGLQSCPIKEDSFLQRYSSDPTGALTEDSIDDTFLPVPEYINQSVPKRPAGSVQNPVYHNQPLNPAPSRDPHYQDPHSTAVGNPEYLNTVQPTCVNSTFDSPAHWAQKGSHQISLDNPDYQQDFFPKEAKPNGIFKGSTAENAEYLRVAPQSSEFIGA
Compound,IC50 (Recombinant EGFR) [nM],IC50 [1] [nM],IC50 [2] [nM],IC50 [3] [nM]
"COc1ccccc1C(=O)NCc1ccc(-c2nn(C(C)c3cccnc3)c(N)c2C(N)=O)cc1 (centres unmarked) [Example 145, 5-amino-3-[4-[[(2-methoxybenzoyl)amino]methyl]phenyl]-1-[1-(3-pyridyl)ethyl]pyrazole-4-carboxamide]",> 10000,10 to 100,100 to 1000,10 to 100
"COc1ccc(F)cc1C(=O)NCc1ccc(-c2nn(CC(F)(F)F)c(N)c2C(N)=O)cc1F [Example 128, 5-amino-3-[3-fluoro-4-[[(5-fluoro-2-methoxy-benzoyl)amino]methyl]phenyl]-1-(2,2,2-trifluoroethyl)pyrazole-4-carboxamide]",1000 to 10000,< 10,10 to 100,< 10
"COc1ccc(F)cc1C(=O)NCc1ccc(-c2nn(C3CCNCC3(F)F)c(N)c2C(N)=O)cc1 (centres unmarked) [Example 186, 5-amino-1-(3,3-difluoro-4-piperidyl)-3-[4-[[(5-fluoro-2-methoxy-benzoyl)amino]methyl]phenyl]pyrazole-4-carboxamide]",1000 to 10000,< 10,10 to 100,< 10
"COc1ccc(F)cc1C(=O)NCc1ccc(-c2nn(C3CN(C(C)C)CC3(F)F)c(N)c2C(N)=O)cc1 (centres unmarked) [Example 197, 5-amino-1-(4,4-difluoro-1-isopropyl-pyrrolidin-3-yl)-3-[4-[[(5-fluoro-2-methoxy-benzoyl)amino]methyl]phenyl]pyrazole-4-carboxamide]",1000 to 10000,< 10,10 to 100,< 10
"COc1ccc(F)cc1C(=O)NCc1ccc(-c2nn(C(C3CCCCC3)C(F)(F)F)c(N)c2C(N)=O)cc1 (centres unmarked) [Example 192, 5-amino-1-(1-cyclohexyl-2,2,2-trifluoro-ethyl)-3-[4-[[(5-fluoro-2-methoxy-benzoyl)amino]methyl]phenyl]pyrazole-4-carboxamide]",1000 to 10000,10 to 100,100 to 1000,10 to 100
"COc1ccc(F)cc1C(=O)NCc1ccc(-c2nn(C3CNCC3(F)F)c(N)c2C(N)=O)cc1 (centres unmarked) [Example 169, 5-amino-1-(4,4-difluoropyrrolidin-3-yl)-3-[4-[[(5-fluoro-2-methoxy-benzoyl)amino]methyl]phenyl]pyrazole-4-carboxamide]",1000 to 10000,< 10,10 to 100,< 10
"COc1ccc(F)cc1C(=O)NCc1ccc(-c2nn(C(c3ccccc3)C(F)(F)F)c(N)c2C(N)=O)cc1 (centres unmarked) [Example 178, 5-Amino-3-[4-[[(5-fluoro-2-methoxy-benzoyl)amino]methyl]phenyl]-1-(2,2,2-trifluoro-1-phenyl-ethyl)pyrazole-4-carboxamide]",1000 to 10000,10 to 100,10 to 100,< 10
"COc1ccccc1C(=O)NCc1ccc(-c2nn(-c3ccc(F)cc3F)c(N)c2C(N)=O)cc1 [Example 15, 5-Amino-1-(2,4-difluorophenyl)-3-[4-[[(2-methoxybenzoyl)amino]methyl]phenyl]pyrazole-4-carboxamide]",1000 to 10000,< 10,10 to 100,< 10
"COc1ccc(F)cc1C(=O)NCc1ccc(-c2nn(C(C)C(F)(F)F)c(N)c2C(N)=O)cc1F (centres unmarked) [Example 177, 5-amino-3-[3-fluoro-4-[[(5-fluoro-2-methoxy-benzoyl)amino]methyl]phenyl]-1-(2,2,2-trifluoro-1-methyl-ethyl)pyrazole-4-carboxamide]",1000 to 10000,< 10,10 to 100,< 10
"COc1ccccc1C(=O)NCc1ccc(-c2nn(-c3ccc(F)c(F)c3)c(N)c2C(N)=O)cc1 [Example 98, 5-amino-1-(3,4-difluorophenyl)-3-[4-[[(2-methoxybenzoyl)amino]methyl]phenyl]pyrazole-4-carboxamide]",1000 to 10000,< 10,100 to 1000,< 10
"COc1ccccc1C(=O)NCc1ccc(-c2nn(CC(F)(F)F)c(N)c2C(N)=O)c(F)c1 [Example 124, 5-amino-3-[2-fluoro-4-[[(2-methoxybenzoyl)amino]methyl]phenyl]-1-(2,2,2-trifluoroethyl)pyrazole-4-carboxamide]",1000 to 10000,10 to 100,100 to 1000,10 to 100

# Other lines, results leading:
IC50 (Recombinant EGFR) [nM],IC50 [1] [nM],IC50 [2] [nM],IC50 [3] [nM],Compound
100 to 1000,< 10,10 to 100,< 10,"COc1ccccc1C(=O)NCc1ccc(-c2nn(C3CCCOC3)c(N)c2C(N)=O)cc1 (centres unmarked) [Example 80, 5-amino-3-[4-[[(2-methoxybenzoyl)amino]methyl]phenyl]-1-tetrahydropyran-3-yl-pyrazole-4-carboxamide]"
100 to 1000,< 10,10 to 100,< 10,"COc1ccccc1C(=O)NCc1ccc(-c2nn([C@H]3CC[C@@H](O)C3)c(N)c2C(N)=O)cc1 (relative stereo) [Example 20, 5-Amino-1-[(1S*,3R*)-3-hydroxycyclopentyl]-3-[4-[[(2-methoxybenzoyl)amino]methyl]phenyl]pyrazole-4-carboxamide]"
1000 to 10000,100 to 1000,100 to 1000,100 to 1000,"COc1ccccc1C(=O)NCC(O)c1ccc(-c2nn(C3CCCC3)c(N)c2C(N)=O)cc1C (centres unmarked) [Example 187, 5-amino-1-cyclopentyl-3-[4-[1-hydroxy-2-[(2-methoxybenzoyl)amino]ethyl]-3-methyl-phenyl]pyrazole-4-carboxamide]"
100 to 1000,< 10,10 to 100,< 10,"COc1ccccc1C(=O)NCc1ccc(-c2nn(C3CCOCC3)c(N)c2C(N)=O)cc1 [Example 64, 5-amino-3-[4-[[(2-methoxybenzoyl)amino]methyl]phenyl]-1-tetrahydropyran-4-yl-pyrazole-4-carboxamide]"
1000 to 10000,< 10,10 to 100,< 10,"COc1ccccc1C(=O)NCc1ccc(-c2nn([C@@H]3CCOC3)c(N)c2C(N)=O)cc1 [Example 83b, 5-amino-3-[4-[[(2-methoxybenzoyl)amino]methyl]phenyl]-1-[(3R)-tetrahydrofuran-3-yl]pyrazole-4-carboxamide]"
> 10000,10 to 100,100 to 1000,< 10,"COc1ccccc1C(=O)NCc1ccc(-c2nn(C3CCOCC3)c(N)c2C(N)=O)c(F)c1 [Example 99, 5-amino-3-[2-fluoro-4-[[(2-methoxybenzoyl)amino]methyl]phenyl]-1-tetrahydropyran-4-yl-pyrazole-4-carboxamide]"
1000 to 10000,< 10,10 to 100,< 10,"COc1ccccc1C(=O)NCc1ccc(-c2nn(C3CCOC3)c(N)c2C(N)=O)cc1 (centres unmarked) [Example 36, 5-Amino-3-[4-[[(2-methoxybenzoyl)amino]methyl]phenyl]-1-tetrahydrofuran-3-yl-pyrazole-4-carboxamide]"
> 10000,100 to 1000,> 10000,100 to 1000,"COc1ccccc1C(=O)NCc1ccc(-c2nn([C@H]3CCOC3)c(C(F)F)c2C(N)=O)cc1 [Example 112, 5-(difluoromethyl)-3-[4-[[(2-methoxybenzoyl)amino]methyl]phenyl]-1-[(3S)-tetrahydrofuran-3-yl]pyrazole-4-carboxamide]"
100 to 1000,< 10,100 to 1000,< 10,"COc1ccccc1C(=O)NCc1ccc(-c2nn(C3CCCC(O)C3)c(N)c2C(N)=O)cc1 (centres unmarked) [Example 48, 5-amino-1-(3-hydroxycyclohexyl)-3-[4-[[(2-methoxybenzoyl)amino]methyl]phenyl]pyrazole-4-carboxamide]"
